From US20260001876A1, “Compounds and Their Use as PDE4 Activators” (Mironid Limited, priority 2022, published 2026)

Tested on: m-IMCD3 cells
Test: Inhibition of PGE2-stimulated in vitro cyst formation in m-IMCD3 cells (3D culture)
Type: cell-based
Settings: Mus musculus, mIMCD3, 144 h; 3 μM; mean cyst area; 100% for (DMSO + PGE2) and 0% for DMSO control; 6 days of culture; read-out: % Cyst area* after incubation with 3 μM test compound
Protocol: HEK 293 and MDCK cells (Public Health England, Cell Culture Collections) were maintained in Dulbecco's Modified Eagle's Medium (DMEM) supplemented with 10% (v/v) fetal bovine serum (FBS) (Seralab), 2 mM L-glutamine and 100 U/mL penicillin streptomycin cocktail (ThermoFisher); termed complete media. Clonal HEK 293 cell lines were maintained in complete media supplemented with 0.6 mg/ml G418 (Enzo Life Sciences). Mouse inner medullary collecting duct (m-IMCD3) cells [American Type Culture Collection (ATCC)] were maintained in media consisting of DMEM/Hams F-12 50/50 Mix (DMEM F12; Corning) supplemented with penicillin streptomycin cocktail (100 U/mL) and FBS (10% v/v) (DMEM F12-10% FBS).
Experiment 3: Inhibition of In Vitro Cyst Formation in m-IMCD3 Cells Treated with PDE4 Long Form Activators
The mouse Inner Medullary Collecting Duct cell line (m-IMCD3) spontaneously forms cystic spheroids in 3D culture with a Type 1 collagen/Matrigel extracellular matrix. This process can be stimulated with agents which raise intracellular cAMP and is used as an in vitro model for the formation of cystic structures in the kidneys of patients with ADPKD.
Rat Collagen I (Fisher Scientific) is prepared on ice by neutralising with 1M NaOH and diluting with a 2× volume of DMEM/F12+10% FBS. This is mixed 1:1.1 with ice cold Matrigel (Corning) for coating plates (coating mix), and 1:0.93 with Matrigel for cell plating (plating mix).
The assay is conducted in the wells of a 96-well plate culture dish using a total volume of 130 μL of collagen/Matrigel/DMEM F12-10% FBS suspension in growth media for each matrix plug per individual well. Initially, 30 μL of collagen/Matrigel/DMEM F12-10% FBS (coating mix) is added into the well of a 96 well plate and the collagen is set to a gel by incubating at 37° C. for at least 15 minutes. A second layer of 100 μL collagen/Matrigel suspension (plating mix) containing m-IMCD3 cells (2.75×10^6 m-IMCD3 cells per 96-well plate) is layered over the coating mix and the collagen/Matrigel/cell mix again set to a gel by incubating at 37° C. Cell cultures are maintained at 37° C. in an atmosphere of 5% CO2, 95% air.
Between 18 and 24 h after plating, test compound(s) as DMSO stock solutions [0.1% (v/v) final DMSO concentration] and PGE2 (100 nM final concentration) in DMEM F12-10% FBS are added in quadruplicate wells per condition. Media, together with the test compound and PGE2 are replenished after 2 or 3 days. After 6 days of culture z stack images of the wells are captured using the Nikon Eclipse Ti2-E microscope. Nikon General Analysis software is used to measure the following parameters in each well: the mean cyst area, the number of cysts, and the total cyst area.
PDE4 long form activators inhibited in vitro cyst formation in m-IMCD3 cells. Data are shown in Table 4 as mean cyst area (%), compared to 100% for (DMSO+PGE2) and 0% for DMSO control.

Row | Structure (SMILES) | activity at 3 µM [%]
1 | O=C(c1ccccc1)N1CCc2nc(N3C4CCC3CNC4)ccc2C1 [Example 120, (2-(3,8-diazabicyclo[3.2.1]octan-8-yl)-7,8-dihydro-1,6-naphthyridin-6(5H)-yl)(phenyl)methanone] | 1
2 | O=C(c1ccc(F)cc1)N1CCc2nc(N3C4CCC3CNC4)ccc2C1 [Example 123, (2-(3,8-diazabicyclo[3.2.1]octan-8-yl)-7,8-dihydro-1,6-naphthyridin-6(5H)-yl)(4-fluorophenyl)methanone] | -7
3 | O=C([C@H](O)C1CCCC1)N1CCc2nc(N3C4CCC3CNC4)ccc2C1 [Example 124, (2R)-1-(2-(3,8-diazabicyclo[3.2.1]octan-8-yl)-7,8-dihydro-1,6-naphthyridin-6(5H)-yl)-2-cyclopentyl-2-hydroxyethan-1-one] | 0
4 | O=C(OC1CCCC1)N1CCc2nc(N3C4CCC3CNC4)ccc2C1 [Example 125, cyclopentyl 2-(3,8-diazabicyclo[3.2.1]octan-8-yl)-7,8-dihydro-1,6-naphthyridine-6(5H)-carboxylate] | -3
5 | CC(C)OC(=O)N1CCc2nc(N3C4CCC3CNC4)ccc2C1 [Example 126, isopropyl 2-(3,8-diazabicyclo[3.2.1]octan-8-yl)-7,8-dihydro-1,6-naphthyridine-6(5H)-carboxylate] | 14
6 | O=C(OCc1ccccc1)N1CCc2nc(N3C4CCC3CNC4)ccc2C1 [Example 127, benzyl 2-(3,8-diazabicyclo[3.2.1]octan-8-yl)-7,8-dihydro-1,6-naphthyridine-6(5H)-carboxylate] | 3
7 | CC(C)[C@H](C)C(=O)N1Cc2ccc(N3C4CCC3CNC4)nc2C1 [Example 128, (2S)-1-(2-(3,8-diazabicyclo[3.2.1]octan-8-yl)-5,7-dihydro-6H-pyrrolo[3,4-b]pyridin-6-yl)-2,3-dimethylbutan-1-one] | 3
8 | O=C(Cc1ccccc1)N1CCc2nc(N3C4CCC3CNC4)ncc2C1 [Example 133, 1-(2-(3,8-diazabicyclo[3.2.1]octan-8-yl)-7,8-dihydropyrido[4,3-d]pyrimidin-6(5H)-yl)-2-phenylethan-1-one] | -5

Same assay, conditions: Mus musculus, mIMCD3, 144 h; 10 μM; mean cyst area; 100% for (DMSO + PGE2) and 0% for DMSO control; 6 days of culture; read-out: % Cyst area* after incubation with 10 μM test compound

Row | Structure (SMILES) | activity at 10 µM [%]
9 | O=C(CC1CCCC1)N1CCc2nc(N3CCN[C@@H](CO)C3)ccc2C1 (single isomer, unassigned) [Example 131] | -4
10 | O=C(CC1CCCC1)N1CCc2nc(N3CCN[C@H](CO)C3)ccc2C1 (single isomer, unassigned) [Example 132] | -4
11 | O=C(CC1CCCC1)N1CCc2nc(N3C4CCC3CNC4)ccc2C1 [Example 39, 1-(2-(3,8-diazabicyclo[3.2.1]octan-8-yl)-7,8-dihydro-1,6-naphthyridin-6(5H)-yl)-2-cyclopentylethan-1-one] | 5
12 | O=C(COc1ccccc1)N1CCc2nc(N3C4CCC3CNC4)ccc2C1 [Example 41, 1-(2-(3,8-diazabicyclo[3.2.1]octan-8-yl)-7,8-dihydro-1,6-naphthyridin-6(5H)-yl)-2-phenoxyethan-1-one] | 4
13 | CC(C)CC(=O)N1CCc2nc(N3C4CCC3CNC4)ccc2C1 [Example 43, 1-(2-(3,8-diazabicyclo[3.2.1]octan-8-yl)-7,8-dihydro-1,6-naphthyridin-6(5H)-yl)-3-methylbutan-1-one] | -4
14 | CC(C)C(C)C(=O)N1CCc2nc(N3C4CCC3CNC4)ccc2C1 (stereo not drawn) [Example 44, 1-(2-(3,8-diazabicyclo[3.2.1]octan-8-yl)-7,8-dihydro-1,6-naphthyridin-6(5H)-yl)-2,3-dimethylbutan-1-one] | -2
15 | O=C(C1CCCC1)N1CCc2nc(N3C4CCC3CNC4)ccc2C1 [Example 47, (2-(3,8-diazabicyclo[3.2.1]octan-8-yl)-7,8-dihydro-1,6-naphthyridin-6(5H)-yl)(cyclopentyl)methanone] | 5
16 | O=C(NC1CCC(F)(F)CC1)N1CCc2nc(N3C4CCC3CNC4)ccc2C1 [Example 59, 2-(3,8-diazabicyclo[3.2.1]octan-8-yl)-N-(4,4-difluorocyclohexyl)-7,8-dihydro-1,6-naphthyridine-6(5H)-carboxamide] | -4
17 | O=C(N1CCCC1)N1CCc2nc(N3C4CCC3CNC4)ccc2C1 [Example 61, (2-(3,8-diazabicyclo[3.2.1]octan-8-yl)-7,8-dihydro-1,6-naphthyridin-6(5H)-yl)(pyrrolidin-1-yl)methanone] | 3
18 | CN(C(=O)N1CCc2nc(N3C4CCC3CNC4)ccc2C1)C1CCCC1 [Example 63, 2-(3,8-diazabicyclo[3.2.1]octan-8-yl)-N-cyclopentyl-N-methyl-7,8-dihydro-1,6-naphthyridine-6(5H)-carboxamide] | 2
19 | CCN(C(=O)N1CCc2nc(N3C4CCC3CNC4)ccc2C1)C1CCCC1 [Example 64, 2-(3,8-diazabicyclo[3.2.1]octan-8-yl)-N-cyclopentyl-N-ethyl-7,8-dihydro-1,6-naphthyridine-6(5H)-carboxamide] | 0
20 | O=C(CC1CCC(F)(F)CC1)N1Cc2ccc(N3C4CCC3CNC4)nc2C1 [Example 87, 1-(2-(3,8-diazabicyclo[3.2.1]octan-8-yl)-5,7-dihydro-6H-pyrrolo[3,4-b]pyridin-6-yl)-2-(4,4-difluorocyclohexyl)ethan-1-one] | 0
21 | O=C(NC1CCC(F)(F)CC1)N1Cc2ccc(N3C4CCC3CNC4)nc2C1 [Example 89, 2-(3,8-diazabicyclo[3.2.1]octan-8-yl)-N-(4,4-difluorocyclohexyl)-5,7-dihydro-6H-pyrrolo[3,4-b]pyridine-6-carboxamide] | 2
22 | CN1CC2CCC(C1)N2c1ccc2c(n1)CN(C(=O)CC1CCC(F)(F)CC1)C2 [Example 93, 2-(4,4-difluorocyclohexyl)-1-(2-(3-methyl-3,8-diazabicyclo[3.2.1]octan-8-yl)-5,7-dihydro-6H-pyrrolo[3,4-b]pyridin-6-yl)ethan-1-one] | -3
23 | O=C(N1CCCC1)N1Cc2ccc(N3C4CCC3CNC4)nc2C1 [Example 95, (2-(3,8-diazabicyclo[3.2.1]octan-8-yl)-5,7-dihydro-6H-pyrrolo[3,4-b]pyridin-6-yl)(pyrrolidin-1-yl)methanone] | -2
24 | CCN(CC)C(=O)N1Cc2ccc(N3C4CCC3CNC4)nc2C1 [Example 96, 2-(3,8-diazabicyclo[3.2.1]octan-8-yl)-N,N-diethyl-5,7-dihydro-6H-pyrrolo[3,4-b]pyridine-6-carboxamide] | -4
25 | CN1CC2CCC(C1)N2c1ccc2c(n1)CCN(C(=O)CC1CCC(F)(F)CC1)C2 [Example 106, 2-(4,4-difluorocyclohexyl)-1-(2-(3-methyl-3,8-diazabicyclo[3.2.1]octan-8-yl)-7,8-dihydro-1,6-naphthyridin-6(5H)-yl)ethan-1-one] | 1
26 | CC1(CC(=O)N2CCc3nc(N4C5CCC4CNC5)ccc3C2)CCCC1 [Example 119, 1-(2-(3,8-diazabicyclo[3.2.1]octan-8-yl)-7,8-dihydro-1,6-naphthyridin-6(5H)-yl)-2-(1-methylcyclopentyl)ethan-1-one] | -4
27 | O=C(N1Cc2ccc(N3C4CCC3CNC4)nc2C1)C(F)(F)c1ccccc1 [Example 130, 1-(2-(3,8-diazabicyclo[3.2.1]octan-8-yl)-5,7-dihydro-6H-pyrrolo[3,4-b]pyridin-6-yl)-2,2-difluoro-2-phenylethan-1-one] | -10
